Measured values published in paper PMC11345841, “Exploring 2-Sulfonylpyrimidine Warheads as Acrylamide Surrogates for Targeted Covalent Inhibition: A BTK Story” (Journal of Medicinal Chemistry, 2024).
Read-outs that look alike come from different tables or passages of the source.

What was measured:
FLT3 = target: T1, FLT3 (Homo sapiens, UniProt P36888); assay: KINOMEscan ScanTK; assay type: binding
T1 construct: purchased Eurofins DiscoverX KINOMEscan (scanTK)
T1 sequence (P36888 27-993): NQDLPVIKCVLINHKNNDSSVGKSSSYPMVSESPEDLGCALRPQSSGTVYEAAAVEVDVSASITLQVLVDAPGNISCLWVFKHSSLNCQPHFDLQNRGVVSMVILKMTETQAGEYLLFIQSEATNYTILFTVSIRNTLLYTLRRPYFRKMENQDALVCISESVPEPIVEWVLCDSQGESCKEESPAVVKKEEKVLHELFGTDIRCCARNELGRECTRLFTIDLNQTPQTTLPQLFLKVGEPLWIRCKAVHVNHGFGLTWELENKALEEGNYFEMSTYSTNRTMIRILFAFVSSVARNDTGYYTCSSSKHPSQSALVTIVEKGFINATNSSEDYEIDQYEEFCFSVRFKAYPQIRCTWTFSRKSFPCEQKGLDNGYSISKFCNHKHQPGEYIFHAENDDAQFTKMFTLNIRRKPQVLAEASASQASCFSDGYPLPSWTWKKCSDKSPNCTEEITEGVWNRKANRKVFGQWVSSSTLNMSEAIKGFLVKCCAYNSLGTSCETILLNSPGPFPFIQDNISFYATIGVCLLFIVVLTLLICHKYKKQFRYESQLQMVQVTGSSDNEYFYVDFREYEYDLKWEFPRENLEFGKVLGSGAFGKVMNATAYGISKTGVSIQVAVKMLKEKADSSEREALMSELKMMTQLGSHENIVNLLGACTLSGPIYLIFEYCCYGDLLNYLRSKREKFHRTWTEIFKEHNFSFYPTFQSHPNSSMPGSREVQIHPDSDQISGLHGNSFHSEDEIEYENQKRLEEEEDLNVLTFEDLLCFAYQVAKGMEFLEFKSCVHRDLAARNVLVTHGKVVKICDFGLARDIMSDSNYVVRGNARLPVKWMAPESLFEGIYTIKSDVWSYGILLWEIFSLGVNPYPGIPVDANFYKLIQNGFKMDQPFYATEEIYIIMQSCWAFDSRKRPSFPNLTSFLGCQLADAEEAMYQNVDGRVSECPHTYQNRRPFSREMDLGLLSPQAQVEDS

LTK = target: T2, LTK (Homo sapiens, UniProt P29376); assay: KINOMEscan ScanTK; assay type: binding
T2 construct: purchased Eurofins DiscoverX KINOMEscan (scanTK)
T2 sequence (P29376 17-864): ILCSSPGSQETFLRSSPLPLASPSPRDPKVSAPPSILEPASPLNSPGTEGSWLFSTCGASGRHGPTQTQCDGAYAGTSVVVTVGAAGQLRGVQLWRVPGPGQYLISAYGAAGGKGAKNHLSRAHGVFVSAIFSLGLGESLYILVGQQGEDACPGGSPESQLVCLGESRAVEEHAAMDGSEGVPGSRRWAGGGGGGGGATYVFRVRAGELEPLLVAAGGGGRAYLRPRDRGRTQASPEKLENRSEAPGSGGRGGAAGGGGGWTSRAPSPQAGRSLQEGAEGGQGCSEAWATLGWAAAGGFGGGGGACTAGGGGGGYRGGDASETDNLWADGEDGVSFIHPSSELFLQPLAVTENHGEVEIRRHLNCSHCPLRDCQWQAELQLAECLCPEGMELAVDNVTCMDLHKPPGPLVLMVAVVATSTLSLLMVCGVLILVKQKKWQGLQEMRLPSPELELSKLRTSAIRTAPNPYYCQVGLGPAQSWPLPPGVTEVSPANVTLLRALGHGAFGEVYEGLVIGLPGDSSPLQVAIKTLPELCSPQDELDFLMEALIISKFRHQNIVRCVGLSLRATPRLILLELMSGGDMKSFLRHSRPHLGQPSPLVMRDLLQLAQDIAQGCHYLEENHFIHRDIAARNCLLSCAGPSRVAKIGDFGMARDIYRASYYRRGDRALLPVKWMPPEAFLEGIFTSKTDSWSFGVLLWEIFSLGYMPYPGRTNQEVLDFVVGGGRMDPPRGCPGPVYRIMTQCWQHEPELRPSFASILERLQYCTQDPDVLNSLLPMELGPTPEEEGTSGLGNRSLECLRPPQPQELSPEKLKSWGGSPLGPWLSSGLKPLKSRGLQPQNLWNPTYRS

PDGFRA = target: T3, PDGFRA (Homo sapiens, UniProt P16234); assay: KINOMEscan ScanTK; assay type: binding
T3 construct: purchased Eurofins DiscoverX KINOMEscan (scanTK)

EPHA6 = target: T4, EPHA6 (Homo sapiens, UniProt Q9UF33); assay: KINOMEscan ScanTK; assay type: binding
T4 construct: purchased Eurofins DiscoverX KINOMEscan (scanTK)
T4 sequence (Q9UF33 23-1036): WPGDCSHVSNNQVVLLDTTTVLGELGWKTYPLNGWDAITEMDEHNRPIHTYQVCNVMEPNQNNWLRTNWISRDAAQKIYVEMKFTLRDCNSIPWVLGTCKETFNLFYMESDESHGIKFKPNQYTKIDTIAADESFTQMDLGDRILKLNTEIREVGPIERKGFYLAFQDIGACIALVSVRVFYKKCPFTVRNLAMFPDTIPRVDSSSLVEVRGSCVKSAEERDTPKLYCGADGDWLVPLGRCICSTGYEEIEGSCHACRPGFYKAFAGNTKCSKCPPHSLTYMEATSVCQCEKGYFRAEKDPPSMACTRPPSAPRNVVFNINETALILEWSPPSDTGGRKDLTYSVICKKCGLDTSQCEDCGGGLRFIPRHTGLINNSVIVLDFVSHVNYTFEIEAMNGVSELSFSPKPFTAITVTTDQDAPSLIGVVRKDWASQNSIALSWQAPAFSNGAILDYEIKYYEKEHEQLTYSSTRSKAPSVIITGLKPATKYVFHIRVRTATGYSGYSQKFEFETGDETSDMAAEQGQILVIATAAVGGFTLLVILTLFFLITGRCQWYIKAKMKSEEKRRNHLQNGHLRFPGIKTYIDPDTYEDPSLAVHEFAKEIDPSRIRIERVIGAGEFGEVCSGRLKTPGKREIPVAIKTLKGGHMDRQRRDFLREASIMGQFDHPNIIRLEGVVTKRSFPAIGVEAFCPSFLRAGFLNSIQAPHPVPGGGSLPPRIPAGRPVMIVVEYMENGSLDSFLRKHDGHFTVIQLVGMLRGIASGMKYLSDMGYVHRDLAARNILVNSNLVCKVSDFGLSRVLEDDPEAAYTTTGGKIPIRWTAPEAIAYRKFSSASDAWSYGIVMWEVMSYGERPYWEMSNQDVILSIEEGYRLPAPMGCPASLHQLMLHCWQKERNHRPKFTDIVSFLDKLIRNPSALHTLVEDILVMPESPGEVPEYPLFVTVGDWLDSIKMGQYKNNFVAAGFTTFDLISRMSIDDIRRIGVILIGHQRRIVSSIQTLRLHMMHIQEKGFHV

BTK Y223 phosphorylation = assay: Immunoblotting, anti-IgM-induced signaling in OCI-LY7 cells; settings: 500 nM, 1 h
Experimental: We also investigated the effects of the compounds (at 500 nM) on sIgM signaling by analyzing the phosphorylation status of key signaling molecules activated downstream of the BCR.
Secondary antibodies were horseradish peroxidase-conjugated antibodies (GE Healthcare). Images were captured using the Amersham ImageQuant 800 System and quantified using ImageJ (http://imagej.nih.gov/ij/). Expression of phosphorylated proteins was normalized to the equivalent total protein with values for DMSO/anti-IgM set to 100%.

KIT(D816H) = target: T5, KIT(D816H) (Homo sapiens, UniProt P10721, D816H); assay: KINOMEscan ScanTK; assay type: binding
T5 construct: purchased Eurofins DiscoverX KINOMEscan (scanTK)

BRK = target: T6, BRK (Homo sapiens, UniProt Q13882); assay: KINOMEscan ScanTK; assay type: binding
T6 construct: purchased Eurofins DiscoverX KINOMEscan (scanTK)
T6 sequence (Q13882 whole entry): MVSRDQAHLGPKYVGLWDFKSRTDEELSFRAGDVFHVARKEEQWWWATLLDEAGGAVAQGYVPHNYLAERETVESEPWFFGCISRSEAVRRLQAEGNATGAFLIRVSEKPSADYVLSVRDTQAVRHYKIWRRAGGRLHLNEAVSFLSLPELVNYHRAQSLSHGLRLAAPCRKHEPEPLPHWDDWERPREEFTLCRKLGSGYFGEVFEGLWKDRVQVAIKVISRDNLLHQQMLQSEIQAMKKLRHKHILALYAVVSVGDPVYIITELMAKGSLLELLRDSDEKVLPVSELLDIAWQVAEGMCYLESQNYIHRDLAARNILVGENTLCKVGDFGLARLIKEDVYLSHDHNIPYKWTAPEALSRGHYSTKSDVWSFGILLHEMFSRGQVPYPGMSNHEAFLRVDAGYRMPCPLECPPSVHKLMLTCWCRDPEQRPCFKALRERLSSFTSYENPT

ERBB2 = target: T7, ERBB2 (Homo sapiens, UniProt P04626); assay: KINOMEscan ScanTK; assay type: binding; settings: for remaining binding at 1 µM / difference in %Control versus compound Ib at 1 µM: ERBB2
T7 construct: purchased Eurofins DiscoverX KINOMEscan (scanTK)
T7 sequence (P04626 23-1255): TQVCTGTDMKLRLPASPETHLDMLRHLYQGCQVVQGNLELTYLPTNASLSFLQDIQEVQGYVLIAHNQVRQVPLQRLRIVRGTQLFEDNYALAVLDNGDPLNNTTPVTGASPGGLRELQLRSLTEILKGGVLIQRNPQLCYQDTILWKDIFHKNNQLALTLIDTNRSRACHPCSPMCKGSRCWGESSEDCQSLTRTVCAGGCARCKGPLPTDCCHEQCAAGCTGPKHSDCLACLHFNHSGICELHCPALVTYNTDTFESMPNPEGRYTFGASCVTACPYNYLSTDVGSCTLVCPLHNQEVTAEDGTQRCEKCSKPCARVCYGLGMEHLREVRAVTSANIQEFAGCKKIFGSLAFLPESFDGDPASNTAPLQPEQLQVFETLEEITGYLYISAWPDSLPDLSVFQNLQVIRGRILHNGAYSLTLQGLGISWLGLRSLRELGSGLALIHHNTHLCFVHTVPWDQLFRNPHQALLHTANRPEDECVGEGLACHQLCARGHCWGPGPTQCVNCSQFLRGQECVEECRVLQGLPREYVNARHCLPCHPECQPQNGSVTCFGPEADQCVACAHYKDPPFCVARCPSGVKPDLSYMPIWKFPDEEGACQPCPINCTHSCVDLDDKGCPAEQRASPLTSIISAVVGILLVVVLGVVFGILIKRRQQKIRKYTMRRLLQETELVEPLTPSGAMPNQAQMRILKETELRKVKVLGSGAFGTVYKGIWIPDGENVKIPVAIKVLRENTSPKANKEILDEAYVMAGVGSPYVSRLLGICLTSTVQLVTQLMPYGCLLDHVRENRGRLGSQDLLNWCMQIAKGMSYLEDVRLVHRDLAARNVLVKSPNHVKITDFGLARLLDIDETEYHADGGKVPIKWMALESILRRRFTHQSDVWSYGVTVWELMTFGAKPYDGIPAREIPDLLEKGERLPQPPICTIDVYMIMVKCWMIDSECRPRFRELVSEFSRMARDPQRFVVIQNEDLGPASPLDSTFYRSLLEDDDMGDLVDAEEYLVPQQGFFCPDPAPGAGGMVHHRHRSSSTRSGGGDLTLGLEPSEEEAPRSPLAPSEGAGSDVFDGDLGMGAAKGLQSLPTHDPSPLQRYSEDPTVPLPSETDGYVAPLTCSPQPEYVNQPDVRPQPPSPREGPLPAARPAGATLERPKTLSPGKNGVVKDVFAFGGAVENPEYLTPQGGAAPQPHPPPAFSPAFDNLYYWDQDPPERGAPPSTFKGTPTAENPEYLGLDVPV

TIE2 = target: T8, TIE2 (Homo sapiens, UniProt Q02763); assay: KINOMEscan ScanTK; assay type: binding
T8 construct: purchased Eurofins DiscoverX KINOMEscan (scanTK)
T8 sequence (Q02763 23-1124): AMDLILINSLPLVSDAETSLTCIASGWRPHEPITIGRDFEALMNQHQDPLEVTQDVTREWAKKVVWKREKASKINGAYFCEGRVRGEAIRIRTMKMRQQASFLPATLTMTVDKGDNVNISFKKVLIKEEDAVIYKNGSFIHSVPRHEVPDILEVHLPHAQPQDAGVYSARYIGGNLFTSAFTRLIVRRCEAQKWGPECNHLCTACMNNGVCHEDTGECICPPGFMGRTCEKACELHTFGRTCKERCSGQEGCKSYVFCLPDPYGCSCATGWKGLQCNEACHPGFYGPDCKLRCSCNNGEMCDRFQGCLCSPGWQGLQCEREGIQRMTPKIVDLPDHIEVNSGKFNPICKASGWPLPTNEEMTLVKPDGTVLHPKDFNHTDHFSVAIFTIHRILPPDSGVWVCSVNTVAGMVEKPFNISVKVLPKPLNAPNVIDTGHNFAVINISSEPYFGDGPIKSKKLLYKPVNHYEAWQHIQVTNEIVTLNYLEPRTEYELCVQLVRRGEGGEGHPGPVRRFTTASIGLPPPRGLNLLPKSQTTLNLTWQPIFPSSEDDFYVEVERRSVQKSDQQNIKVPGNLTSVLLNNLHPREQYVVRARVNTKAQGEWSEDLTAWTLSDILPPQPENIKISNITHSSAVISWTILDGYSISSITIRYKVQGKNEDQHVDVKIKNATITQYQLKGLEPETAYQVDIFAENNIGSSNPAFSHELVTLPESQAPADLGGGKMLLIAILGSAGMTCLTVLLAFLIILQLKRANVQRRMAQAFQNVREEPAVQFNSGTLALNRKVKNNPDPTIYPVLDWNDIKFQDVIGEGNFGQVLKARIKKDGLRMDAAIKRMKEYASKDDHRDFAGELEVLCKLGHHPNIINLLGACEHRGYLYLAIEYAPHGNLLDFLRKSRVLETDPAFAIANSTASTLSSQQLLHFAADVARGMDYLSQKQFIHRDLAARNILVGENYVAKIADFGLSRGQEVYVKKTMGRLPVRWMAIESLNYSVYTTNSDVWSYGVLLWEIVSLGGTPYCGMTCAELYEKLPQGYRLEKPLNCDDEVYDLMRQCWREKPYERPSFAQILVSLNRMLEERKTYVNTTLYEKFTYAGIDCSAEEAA

EGFR(G719S) = target: T9, EGFR(G719S) (Homo sapiens, UniProt P00533, G719S); assay: KINOMEscan ScanTK; assay type: binding
T9 construct: purchased Eurofins DiscoverX KINOMEscan (scanTK)
T9 sequence (P00533 25-1210 G719S): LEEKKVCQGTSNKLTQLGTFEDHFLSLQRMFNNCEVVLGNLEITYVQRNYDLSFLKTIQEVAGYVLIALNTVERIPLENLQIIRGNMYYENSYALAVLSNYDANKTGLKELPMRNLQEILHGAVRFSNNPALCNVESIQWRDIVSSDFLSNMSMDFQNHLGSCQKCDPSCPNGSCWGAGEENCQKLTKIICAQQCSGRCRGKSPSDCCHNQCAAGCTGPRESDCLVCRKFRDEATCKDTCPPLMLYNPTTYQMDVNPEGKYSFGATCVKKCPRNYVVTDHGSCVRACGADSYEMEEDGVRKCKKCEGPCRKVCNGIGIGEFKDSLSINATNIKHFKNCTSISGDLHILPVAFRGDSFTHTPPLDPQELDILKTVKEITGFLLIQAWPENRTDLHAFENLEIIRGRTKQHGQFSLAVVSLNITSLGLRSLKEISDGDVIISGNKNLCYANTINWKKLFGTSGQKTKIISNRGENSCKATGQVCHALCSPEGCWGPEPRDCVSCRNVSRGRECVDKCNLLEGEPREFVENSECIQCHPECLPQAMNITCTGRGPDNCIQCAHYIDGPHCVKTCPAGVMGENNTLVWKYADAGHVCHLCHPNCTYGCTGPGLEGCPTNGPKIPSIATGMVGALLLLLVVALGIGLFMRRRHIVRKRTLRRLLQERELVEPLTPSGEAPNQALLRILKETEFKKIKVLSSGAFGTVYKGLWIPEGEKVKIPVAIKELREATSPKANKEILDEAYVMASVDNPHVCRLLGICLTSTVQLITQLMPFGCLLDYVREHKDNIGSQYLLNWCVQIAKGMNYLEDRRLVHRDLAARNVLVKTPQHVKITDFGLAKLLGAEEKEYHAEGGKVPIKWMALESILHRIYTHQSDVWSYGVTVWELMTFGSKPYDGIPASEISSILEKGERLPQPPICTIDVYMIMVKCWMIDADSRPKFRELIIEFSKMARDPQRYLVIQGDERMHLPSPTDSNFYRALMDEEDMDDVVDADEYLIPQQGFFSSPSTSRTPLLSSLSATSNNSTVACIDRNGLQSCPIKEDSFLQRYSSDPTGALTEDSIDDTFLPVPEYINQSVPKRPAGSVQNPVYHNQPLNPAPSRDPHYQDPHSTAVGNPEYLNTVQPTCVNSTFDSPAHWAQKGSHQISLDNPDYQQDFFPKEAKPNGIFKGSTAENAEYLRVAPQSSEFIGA

Row | SMILES | remaining binding at 1 µM (FLT3; @1000nM, read-out: %Control) [%] | remaining binding at 1 µM (FLT3; read-out: %Control @1000nM) [%] | remaining binding at 1 µM (LTK; @1000nM, read-out: %Control) [%] | remaining binding at 1 µM (LTK; read-out: %Control @1000nM) [%] | remaining binding at 1 µM (PDGFRA; @1000nM, read-out: %Control) [%] | remaining binding at 1 µM (PDGFRA; read-out: %Control @1000nM) [%] | remaining binding at 1 µM (EPHA6; @1000nM, read-out: %Control) [%] | remaining binding at 1 µM (EPHA6; read-out: %Control @1000nM) [%] | remaining binding at 1 µM (KIT(D816H); @1000nM, read-out: %Control) [%] | remaining binding at 1 µM (KIT(D816H); read-out: %Control @1000nM) [%] | remaining binding at 1 µM (BRK; @1000nM, read-out: %Control) [%] | remaining binding at 1 µM (BRK; read-out: %Control @1000nM) [%] | remaining binding at 1 µM (ERBB2; @1000nM, read-out: %Control) [%] | remaining binding at 1 µM (ERBB2; read-out: %Control @1000nM) [%] | difference in %Control from compound Ib at 1 µM (FLT3; @1000nM) [%] | difference in %Control from compound Ib at 1 µM (EPHA6; @1000nM) [%] | remaining binding at 1 µM (TIE2; @1000nM, read-out: %Control) [%] | remaining binding at 1 µM (TIE2; read-out: %Control @1000nM) [%] | difference in %Control relative to compound Ib at 1 µM (BRK; @1000nM) [%] | difference in %Control from compound Ib at 1 µM (EGFR(G719S); @1000nM) [%] | also measured
1 | C=CC(=O)N1CCC[C@@H](n2nc(-c3ccc(Oc4ccccc4)cc3)c3c(N)ncnc32)C1 [Compound 1g, Ibrutinib, reference compound] | 33 | 33 | 81 | 81 | 49 | 49 | 77 | 77 | 100 | 100 | 1.3 | 1.3 | 0 | 0 | – | – | – | – | – | – | anti-IgM-induced BTK Y223 phosphorylation (BTK Y223 phosphorylation): strongly inhibited; inhibition at 1 µM (ERBB2; ScanTK, 1 μM): > 99%
2 | Cc1cnc(S(C)(=O)=O)nc1N1CCCC(n2nc(-c3ccc(Oc4ccccc4)cc3)c3c(N)ncnc32)C1 (centres unmarked) [Compound 8a, 1-(1-(5-Methyl-2-(methylsulfonyl)pyrimidin-4-yl)piperidin-3-yl)-3-(4-phenoxyphenyl)-1H-pyrazolo[3,4-d]pyrimidin-4-amine] | 54 | 54 | 93 | 93 | 72 | 72 | 100 | 100 | 87 | 87 | 15 | 15 | 53 | 53 | 21 | 23 | 91 | 91 | 13.7 | 95.4 | remaining binding at 1 µM (EGFR(G719S); @1000nM, read-out: %Control): 96%; remaining binding at 1 µM (EGFR(G719S); read-out: %Control @1000nM): 96%; difference in %Control versus compound Ib at 1 µM (ERBB2; @1000nM): 53%
3 | COC(=O)c1cnc(S(C)(=O)=O)nc1N1CCCC(n2nc(-c3ccc(Oc4ccccc4)cc3)c3c(N)ncnc32)C1 (centres unmarked) [Compound 8b, Methyl 4-(3-(4-Amino-3-(4-phenoxyphenyl)-1H-pyrazolo[3,4-d]pyrimidin-1-yl)piperidin-1-yl)-2-(methylsulfonyl)pyrimidine-5-carboxylate] | 80 | 80 | 94 | 94 | 90 | 90 | 92 | 92 | 98 | 98 | 42 | 42 | 41 | 41 | 47 | 15 | 72 | 72 | 40.7 | 84.4 | anti-IgM-induced BTK Y223 phosphorylation (BTK Y223 phosphorylation): selectively reduced BTK Y^223 phosphorylation; remaining binding at 1 µM (EGFR(G719S); @1000nM, read-out: %Control): 85%; remaining binding at 1 µM (EGFR(G719S); read-out: %Control @1000nM): 85%; difference in %Control versus compound Ib at 1 µM (ERBB2; @1000nM): 41%
4 | CCOC(=O)c1cnc(S(C)(=O)=O)nc1N1CCC[C@@H](n2nc(-c3ccc(Oc4ccccc4)cc3)c3c(N)ncnc32)C1 [Compound 8c, Ethyl (R)-4-(3-(4-Amino-3-(4-phenoxyphenyl)-1H-pyrazolo[3,4-d]pyrimidin-1-yl)piperidin-1-yl)-2-(methylsulfonyl)pyrimidine-5-carboxylate] | 93 | 93 | 100 | 100 | 91 | 91 | 87 | 87 | 55 | 55 | 54 | 54 | 48 | 48 | 60 | 10 | 90 | 90 | 52.7 | 93.4 | anti-IgM-induced BTK Y223 phosphorylation (BTK Y223 phosphorylation): selectively reduced BTK Y^223 phosphorylation; remaining binding at 1 µM (EGFR(G719S); @1000nM, read-out: %Control): 94%; remaining binding at 1 µM (EGFR(G719S); read-out: %Control @1000nM): 94%; difference in %Control versus compound Ib at 1 µM (ERBB2; @1000nM): 48%
5 | CNC(=O)c1cnc(S(C)(=O)=O)nc1N1CCCC(n2nc(-c3ccc(Oc4ccccc4)cc3)c3c(N)ncnc32)C1 (centres unmarked) [Compound 8d, 4-(3-(4-Amino-3-(4-phenoxyphenyl)-1H-pyrazolo[3,4-d]pyrimidin-1-yl)piperidin-1-yl)-N-methyl-2-(methylsulfonyl)pyrimidine-5-carboxamide] | 65 | 65 | 100 | 100 | 78 | 78 | 97 | 97 | 50 | 50 | 15 | 15 | 5.5 | 5.5 | 32 | 20 | 74 | 74 | 13.7 | 77.4 | remaining binding at 1 µM (EGFR(G719S); @1000nM, read-out: %Control): 78%; remaining binding at 1 µM (EGFR(G719S); read-out: %Control @1000nM): 78%; difference in %Control versus compound Ib at 1 µM (ERBB2; @1000nM): 5.5%
